The values below come from PMC9731497, “Identification of potent anti-Cryptosporidium new drug leads by screening traditional Chinese medicines” (PLOS Neglected Tropical Diseases, 2022).

For data set [1], the system named is C. parvum HNJ-1 strain. Description: In vitro C. parvum growth inhibition assay (Sporo-Glo staining, fluorescence microscopy count in infected HCT-8 cells). Type of data set: cell-based, Cryptosporidium parvum. The conditions noted are these: Cryptosporidium parvum, HCT-8; C. parvum, dose-dependent curve of comparative drug (response to reviewers); read-out: EC50 value. As to the method:
The primary screening of compounds for C. parvum was performed as follows: HCT-8 cells were seeded in 96-well plates at a density of 2 × 10^4 cells/well and allowed to grow overnight. Before infecting cells, Cryptosporidium oocysts were excysted to sporozoites. 87 compounds were tested against C. parvum at a single concentration of 1 μM. Each compound was tested once. Infected HCT-8 cells and uninfected HCT-8 cells were used as positive and negative controls, respectively, in medium containing 0.1% DMSO. Nitazoxanide was used as a standard comparative drug. In vitro inhibition assays were carried out as previously described. Briefly, oocysts were suspended in 1 ml of 0.1% sodium hypochlorite in PBS, incubated for 5 min at 4°C, centrifuged for 10 min at 3000 rpm, and washed three times in PBS. The oocysts were then suspended in excystation solution consisting of 0.75% sodium taurocholate and 0.25% trypsin dissolved in 0.1 M phosphate buffer (with 93.4 mM K2HPO4 and 6.5 mM KH2PO4; pH 8.0) and incubated at 37°C for 1 h. The oocyst/sporozoite suspensions were then rinsed in 1 x PBS (with 137 mM NaCl, 2.7 mM KCl, 8 mM Na2HPO4, and 2 mM KH2PO4; pH 7.5) once more before being filtered through a 5-μm pore-size PVDF filter (Millipore, Burlington, MA, USA) with 5 ml syringe to remove the oocyst wall. HCT-8 cells were seeded in 96-well plates (Thermo Fisher Scientific Inc., MA, USA) and incubated overnight. The cells were then infected with C. parvum sporozoites (4 ×10^4 sporozoites/well) containing in RPMI-1640 medium for 3 h. After 3h inoculation, the non-infected parasite or debris were washed with new RPMI-1640 media. At this point, in RPMI-1640 medium containing 1 μM library compounds were added. Infected cells were incubated for an additional 45 h. Following incubation, the infected cells were fixed for 10 minutes in ice-cold 100% methanol at room temperature. Plates were then carefully rinsed 3 times with PBS. The parasite infected cells were then blocked with 1% bovine serum albumin (BSA) in PBS for 30 minutes and then stained with Sporo-Glo (an anti-Cryptosporidium polyclonal antibody) (Waterborne Environmental, Inc., VA, USA) protected from light for 1 h at room temperature. Finally, cells were washed twice with 1 x PBS-T (1 x PBS supplemented with 0.01% Tween). A Keyence BZ-II 9000 was used to capture the images (KEYENCE, Osaka, Japan). The plates were imaged with a HS all-in-one fluorescence microscope using a 20 x objective. The image output was imported into Microsoft excel for data organization and analyses. All C. parvum parasite in the well were counted.
For a second investigation, four selective hit compounds were used to determine the half-maximum inhibitory concentration (EC50). The parasites were treated with various doses of compounds (ranging from 0.008–1 μM). HCT-8 cells (2 × 10^4 cells/well) were grown for 24 h before being infected with 4 × 10^4 C. parvum sporozoites in 96-well plates. […] Sporo-Glo was used for C. parvum staining as described above. Fluorescence microscopy with a Keyence BZ-II 9000 imager was used to count all Cryptosporidium in the wells (KEYENCE, Osaka, Japan). EC50 vales were determined by analyzing dose-response curves made by GraphPad Prism (GraphPad Software, CA, USA).

Data set [2] deals with C. parvum HNJ-1 strain. As to the kind of experiment: In vivo C. parvum growth inhibition assay (oocyst shedding in feces of infected SCID mice, sugar flotation). Set-up: species or system Cryptosporidium parvum. The conditions noted are these: 100 mg/kg BW oral, 11 days, SCID mice n=3, mean of days 3, 6, 7, 9, 12, 14.
Data set [3] deals with Cryptosporidium parvum. The conditions noted are these: cited from earlier work.
Data set [4] can be described thus: Liver histology (sub-effects of drugs, hepatocellular damage) in treated mice. The format is in vivo, SCID mice. The conditions noted are these: mouse, in vivo. As to the method: (§1) We performed a histopathological analysis to evaluate the growth inhibitory effects and toxicity of the hit compounds in C. parvum-infected mice. In brief, ileum was collected, fixed in 10% neutral buffered formalin, and paraffin-embedded. Each section was cut to a thickness of 4 μm for hematoxylin and eosin (HE) staining and immunohistochemistry. Immunohistochemistry (IHC) was performed following standard techniques using the Envision+ system (Agilent Technologies, Inc., Santa Clara, CA) and 3,3-diaminobenzidine (DAB)(Dojindo, Kumamoto, Japan). Anti-Toxoplasma gondii (RH strain) rabbit polyclonal IgG (Abcam, Cambridge, UK) was used as the primary antibody. The antibody cross reacts with C. Parvum. To reduce the endogenous peroxidase activity, the sections were incubated with 3% H2O2 for 5 minutes. Sections were incubated with primary antibodies overnight at 4°C. After washing with PBS with Tween 20 (PBST), sections were incubated with Envision+ single polymer solution (Agilent Technologies Inc.) for 30 minutes at room temperature. Sections were counterstained with Mayer’s hematoxylin. The severity of C. parvum infection was evaluated in the most severe area, and scored from—to 3+ (-, no oocysts; 1+, mild focal infection; 2+, moderate multifocal infection; 3+, severe diffuse infection). Sub-effects of drugs (hepatocellular damage) were evaluated for major histological changes in karyomegaly, hepatocellular hypertrophy, and interstitial fibrosis/inflammation. We also checked the organs (liver, heart, lung, kidney, and intestines) alteration at necropsy whether it has abnormal or normal.

The test system of data set [5] is C. parvum. As to the kind of experiment: Histopathological analysis and immunohistochemistry of ileum of C. parvum-infected mice. Type of data set: in vivo, Cryptosporidium parvum. Further details: key to severity of C. parvum infection in ileum, Score: -, no oocysts; 1+, mild focal infection; 2+, moderate multifocal infection; 3+, severe diffuse infection. The conditions noted are these: HE and immunohistochemistry, most severe area, day 14, dose not stated. The method, then: as §1

Where “and” joins values, the source holds several entries; their conditions need not be identical. Equal entries are not always repeated.

One may read the EC50 as the concentration at which the effect is half-maximal. As usually defined, the IC50 is the concentration that inhibits the measured activity by half. With `CC(=O)Oc1ccccc1C(=O)Nc1ncc([N+](=O)[O-])s1` [Nitazoxanide], the EC50 was 4.14 ± 0.54 µM in data set [1] and 1.55 to 5.1 µM in data set [3] (ref PMID: 22167242, PMID: 29341586, PMID: 30297368, read-out: range of EC50 value). Further, the “No. of oocysts, Mean” value in data set [2] was 81.1. Further, the IC50 in data set [3] (ref 30 (Bessoff et al., 2013), read-out: IC50 against Cryptosporidium parvum) was ~3.7 µM and 3.7 µM. For the same compound, the “histological findings in liver” value in data set [4] is “karyomegaly and hepatocellular hypertrophy”. Also, the “severity of C. parvum infection in ileum, Score” value in data set [5] is 2+.
